How the values were obtained:
Type in all cases: biochemical
[1] = molecular target: T1, recombinant Factor C (rFC) (Carcinoscorpius rotundicauda, UniProt Q26422); experiment: recombinant Factor C (rFC) assay with different detergents; conditions: for Detergent concentration range for rFC inhibition / Detergent concentration range for rFC enhancing: 1 EU/ml EC-6, DPR-coumarin substrate, 38° C., data after 30 minutes; for enhancing concentration range (narrow or wide): rFC assay
T1 construct: made in house; host or cells: Sf9 insect cells, baculovirus
T1 sequence (Q26422 26-1019): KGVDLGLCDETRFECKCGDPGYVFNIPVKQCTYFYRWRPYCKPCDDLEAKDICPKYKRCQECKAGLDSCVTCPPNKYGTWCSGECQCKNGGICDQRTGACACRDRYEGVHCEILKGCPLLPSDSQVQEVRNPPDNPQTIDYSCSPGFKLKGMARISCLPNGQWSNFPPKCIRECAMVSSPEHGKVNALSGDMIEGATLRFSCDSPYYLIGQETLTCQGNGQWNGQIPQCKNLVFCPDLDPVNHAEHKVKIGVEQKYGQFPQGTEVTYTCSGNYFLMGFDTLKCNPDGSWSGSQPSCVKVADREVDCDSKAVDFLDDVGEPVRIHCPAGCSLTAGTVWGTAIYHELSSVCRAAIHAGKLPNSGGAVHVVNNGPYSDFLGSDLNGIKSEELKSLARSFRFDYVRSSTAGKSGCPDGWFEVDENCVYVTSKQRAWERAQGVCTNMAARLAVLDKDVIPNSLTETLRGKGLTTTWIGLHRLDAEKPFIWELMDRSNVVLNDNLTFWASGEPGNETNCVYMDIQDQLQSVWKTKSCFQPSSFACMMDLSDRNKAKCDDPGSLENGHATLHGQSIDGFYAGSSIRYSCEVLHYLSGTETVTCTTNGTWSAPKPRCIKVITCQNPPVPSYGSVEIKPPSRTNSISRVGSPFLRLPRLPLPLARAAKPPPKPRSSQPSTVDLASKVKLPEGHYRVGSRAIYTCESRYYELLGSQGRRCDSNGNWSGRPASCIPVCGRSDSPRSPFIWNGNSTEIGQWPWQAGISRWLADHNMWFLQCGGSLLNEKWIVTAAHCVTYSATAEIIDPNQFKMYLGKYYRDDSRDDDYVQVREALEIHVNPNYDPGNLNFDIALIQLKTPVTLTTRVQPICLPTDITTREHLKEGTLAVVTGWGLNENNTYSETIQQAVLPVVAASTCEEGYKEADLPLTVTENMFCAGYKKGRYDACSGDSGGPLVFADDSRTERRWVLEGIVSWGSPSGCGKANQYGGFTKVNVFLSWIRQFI
Description: The recombinant Factor C (rFC) assay was carried out using 20 μl of each detergent (˜10× of final concentration), 150 μl of 1 EU/ml EC-6, 10 μl of rFC supernatant 031901I, 20 μl of 300 mM Tris, pH 8.0, and 20 μl of 0.55 mM DPR-coumarin substrate. The results of the assay were read at 38° C. using a Cytofluor reader set at 390/440 nm, 5 minutes per cycle, for 1 hour. The data were graphed after 30 minutes.

Recombinant Factor C = molecular target: T2, Recombinant Factor C (Carcinoscorpius rotundicauda, UniProt Q26422); experiment: one-step, 1-hour endpoint endotoxin assay with or without surfactant; conditions: assay buffer with or without 0.0125% Zwittergent; endotoxin 055:B5 0.01-10 EU/ml; FIG. 7
T2 construct: made in house; host or cells: Sf9 insect cells, baculovirus
T2 sequence (Q26422 26-1019): T1 sequence (Q26422 26-1019)
Description: A one-step, 1-hour endpoint assay was performed. Endotoxin 055:B5, 0.01, 0.1, 1, and 10 EU/ml were used for the standard curve. Blank and endotoxin standards (100 μl each) were added to a 96-well plate. […] This mixture was added into each blank and endotoxin standard. The fluorescence was recorded at time zero and time 1 hour. The difference in fluorescences (delta fluorescence) were normalized with the blank. Normalized delta fluorescence was then graphed against endotoxin concentration in a log-log scale. Each data point is the result of duplicate assays.

[2] = molecular target: T3, recombinant Carcinoscorpius rotundicauda Factor C (Carcinoscorpius rotundicauda, UniProt Q26422); experiment: two-step and one-step endotoxin assay (Examples 1 and 13); conditions: assay of Examples 1 and 13
T3 construct: made in house; host or cells: Sf9 insect cells, baculovirus (pFASTBAC1 bacmid); culture supernatant used without purification
T3 sequence (Q26422 26-1019): T1 sequence (Q26422 26-1019)
Description: Endotoxin was pre-incubated with culture medium containing recombinant Carcinoscorpius rotundicauda Factor C obtained from recombinant Factor C-producing Sf9 cells for 1 hour in assay buffer (30 mM Tris, pH 8.0, 30 mM NaCl, 0.3% lactose, and 0.0025% Zwittergent 3-14). The substrate N-t-Boc-Asp(Obzl)-Pro-Arg-7-Amido-4-methyl coumarin (DPR-coumarin) was added to the mixture to a final concentration of […]. The fluorescence generated from the cleavage of the substrate by activated Factor C was measured after 15-20 minutes. Results of a similar assay carried out using the substrate N-t-Boc-Val-Pro-Arg-7-Amido-4-methyl coumarin at a final concentration of 100 mM are shown in FIG. 5.
A one-step endotoxin assay can be carried out in a 96-well plate, using 100 μl each of blank and endotoxin standards. […] The plate is incubated at 37° C. for 1 hour. Excitation and emission are read at 390 and 440 nm, respectively, in a fluorescence microplate reader.

[3] = test system: purified Limulus factor C; experiment: Limulus Factor C activity at different Zwittergent concentrations; conditions: FIG. 6; compared with recombinant Factor C assay
Description: The enhancing/inhibiting effect of Zwittergent 3-14 was also tested using purified Limulus factor C (FIG. 6).
We isolated the factor C from Limulus and generated antisera against the protein. The Limulus lysate was first separated with a S-100 gel filtration followed by cation-ion exchange column. The fractions were assayed for factor C activity using the N-t-BOC-Val-Pro-Arg 7-Amido-4-methyl coumarin substrate. The Limulus factor C was purified 73 fold with 80% homogeneity as determined by enzyme assay and SDS-PAGE. The molecular weight of Limulus factor C was 117 kDa by SDS-PAGE under non-reducing conditions. […] A specific polyclonal antibody against the Limulus factor C was generated in rabbits. The anti-factor C purified IgG inhibited the activation of factor C by LPS but had no effect on the protease activity once the factor C was activated by LPS.

Row | Molecule | Detergent concentration range for rFC inhibition [1] | enhancing concentration range (narrow or wide) [1] | increase of endotoxin detection sensitivity when surfactant was included (Recombinant Factor C) | optimal concentration of the surfactant [2] | enhancing/inhibiting effect on purified Limulus factor C [3] | Detergent concentration range for rFC enhancing [1]
1 | Triton X-100 | >=0.008% | narrow | – | – | – | –
2 | CCCCCCCCCCCCCC[N+](C)(C)CCCS(=O)(=O)[O-] [Zwittergent 3-14, N-tetradecyl-N,N-dimethyl-3-ammonio-1-propanesulfonate] | >=0.004% | narrow | 10 fold | 0.0025% | A similar enhancing/inhibiting effect was observed | –
3 | CCCCCCCCCCCCOS(=O)(=O)[O-].[Na+] [SDS] | >=0.0004% | – | – | – | – | –
4 | CCCCCCCCS[C@@H]1O[C@H](CO)[C@@H](O)[C@H](O)[C@H]1O [OTG, octyl-beta-D-thioglucoside] | >=0.5% | narrow | – | – | – | –
5 | polyoxyethylene (20) sorbitan monooleate [Tween 80] | >0.25% | wide | – | – | – | 0.001-0.25%
6 | polyoxyethylene (20) sorbitan monolaurate [Tween 20] | >0.5% | wide | – | – | – | 0.001-0.5%
